Data taken from patent US8541468B2, “Ophthalmic composition for treating tear dysfunction” (Ophtecs Corporation, priority 2003, dated 2013).

Tests used:
Type in all cases: in vivo
rat dry eye models [1] = experiment: Observation of dry spot areas in the tear film of rat dry eye models; conditions: four times a day for 5 days, dry environment
Excerpt: Air was blown against rats in a low humidity environment as described below to prepare rat dry eye models. An effect of sodium D-3-hydroxybutyrate (hereinafter abbreviated as “HBA.Na”) which is an active ingredient in the present invention, i.e., its effect of improving the stability of tear film, was examined by use of the prepared rat dry eye models. That is, observation of dry spot areas in the tear film of the rats and measurement of BUT of the tear film were made. […]
After passage of two hours from the last application of the eye drops on the fifth day, a xylazine hydrochloride/ketamine hydrochloride mixed solution was injected (2 ml/kg) into the rats to anesthetize them. […] Dry spot areas had been observed for 5 minutes since the eye-opening by use of a dry eye observation device “DR-1” (product of KOWA CO., LTD.), and the observed images were recorded on a videotape. The observed images were analyzed by use of image analysis software “Scion Image (version 4.02β)” (product of Scion Corporation) to determine a dry spot area per unit area [dry spot area (pixel)/area of observed area on the cornea (pixel)]. From the area, a dry spot area per unit area of the cornea [dry spot area (mm^2)/area of observed area on the cornea (mm^2)] was calculated by use of a conversion formula (1 pixel=0.0000195 mm^2) and evaluated. […]

[2] = test system: corneal epithelial cells of rat dry eye models; experiment: SEM observation of corneal epithelial cells of rat dry eye models (proportion of dark cells, microvilli); conditions: 80 mmol/l HBA.Na applied for 5 days, dry environment
Description: By use of the rat dry eye models described in Example 1, the corneal epithelial cells of the rats after HBA.Na and PBS were applied were observed by a scanning electron microscope (hereinafter abbreviated as “SEM”).
Samples were prepared in the following manner. • (1) In accordance with the methods described (1), (2) and (4) of Example 1, after 80 mmol/l of HBA.Na and a PBS solution were applied for 5 days, the corneas of the rats were removed immediately and washed with a phosphate buffer (hereinafter abbreviated as “PB”). […]
The photographs taken by the above method were subjected to image analysis to calculate the proportion of the number of dark cells. In the analysis, 6 spots of a certain area were selected randomly from the photograph, the numbers of cells and dark cells within the areas were counted, and the ratio of the number of dark cells to the number of all cells was calculated. […]

rat dry eye models [3] = experiment: Measurement of tear film breakup time (BUT) in rat dry eye models; conditions: eye drops of any concentration (40, 80 and 120 mmol/L HBA.Na), four times a day for 5 days, dry environment
Excerpt: Air was blown against rats in a low humidity environment as described below to prepare rat dry eye models. An effect of sodium D-3-hydroxybutyrate (hereinafter abbreviated as “HBA.Na”) which is an active ingredient in the present invention, i.e., its effect of improving the stability of tear film, was examined by use of the prepared rat dry eye models. That is, observation of dry spot areas in the tear film of the rats and measurement of BUT of the tear film were made.
As the animals to be examined, there were used female SD rats of 8 weeks old that had been conditioned in an animal room where they were kept under light for 12 hours and in the dark for 12 hours at a room temperature of 23±2° C. and a relative humidity of 60±10%. The rats were kept in the animal room for 4 days. […]
After passage of two hours from the last application of the eye drops on the fifth day, a xylazine hydrochloride/ketamine hydrochloride mixed solution was injected (2 ml/kg) into the rats to anesthetize them. After 1% fluorescein was added to the eyes of the rats and the rats were forced to blink a few times, BUT was measured. The above procedure was conducted for HBA.Na concentrations of 40, 80 and 120 mmol/L, and each of the HBA.Na concentrations was evaluated based on 8 eyes of 8 rats.

With `C[C@@H](O)CC(=O)[O-].[Na+]` [HBA.Na, sodium D-3-hydroxybutyrate] the “dry spot area per unit area of the cornea, compared with PBS” value (rat dry eye models [1]; eye drop containing 80 mmol/l HBA.Na, p<0.05 vs PBS) was “significantly smaller dry spot area”, the “dry spot area per unit area of the cornea, compared with PBS” value (rat dry eye models [1]; eye drop containing 120 mmol/l HBA.Na, tendency only) was “the dry spot area also became smaller” and the “state of the microvilli/microvillus of the corneal epithelial cells” value ([2]; SEM) was “retained in a normal state and/or restored to the normal state”. For the same compound, the “proportion of dark cells in corneal epithelial cells, compared with PBS” value ([2]; SEM image analysis) was “significantly lower proportion of dark cells” and the “tear film breakup time (BUT), compared with PBS” value (rat dry eye models [3]) was “BUT extended more significantly”.
